Laboratory results: patent US10954214B2 (Janssen Pharmaceutica NV, priority 2016, dated 2021)
Values belong to the compound of their own block, whether it stands above or below them.

Experiments:
TMD8 cells = assay: 4-day proliferation assay, TMD8; assay type: cell-based; details: Homo sapiens, 96 h, 4 days incubation, CellTiterGLO, read-out: Anti-proliferation: TMD-8 IC50
How it was run: (§1)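 Each line was plated at 10,000 cells per well for linear growth, with no beta-mercaptoethanol during the assay. OCI-Ly3 cells were below passage 10.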

[1] = biological target: full-length MALT1 protein (Strep-MALT1(1-824)-His) (Homo sapiens (Human), UniProt Q9UDY8); assay: MALT1 Biochemical Protease Assay (Ac-LRSR-AMC substrate); details: 10 nM FL MALT1, 200 μM Ac-LRSR-AMC, 4 h at RT; read-out: MALT1_Biochemical activity (Ac-LRSR-amc) IC50
How it was run: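 Fluorescence from AMC release off the quenched LRSR substrate was read after a 4 h reaction at RT. Values were normalised to no-enzyme and uninhibited controls and fitted for IC50 and Hill coefficient.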

OCI-Ly3 cells = assay: 4-day proliferation assay, OCI-Ly3; assay type: cell-based, human; details: Homo sapiens, 96 h, 4 days incubation, CellTiterGLO, read-out: Anti-proliferation: OCI-LY-3 IC50
How it was run: as §1

Jurkat cells = assay: PMA Induced IL2 Production In Jurkat Cells; assay type: cell-based; details: Homo sapiens, PMA/Ionomycin, 20 h, read-out: IL-2 prod h Jurkat PMA IC50
Protocol: Jurkat cells were maintained in complete RPMI 1640 media containing 10% fetal bovine serum, 10 mM HEPES, 100 units/mL of penicillin and 100 μg/mL of streptomycin. Prior to the assay, compounds were made 2- to 4-fold serial dilutions in DMSO. A volume of 10 μL of DMSO-diluted compound in each well were further diluted into 240 μL RPMI1640 complete media. Jurkat cells were harvested by centrifuge at 1200 RPM for 5 min, washed one time with RPMI 1640 media, and suspended in fresh complete RPMI 1640 media at concentration of 1.25×10^6 cell/mL. A volume of 160 uL of Jurkat cells (2×10^5 cells) were seeded in each well of 96 well plate-bottom plates. A volume of 20 uL of diluted compound in RMPI 1640 complete media were added to each well and incubated with Jurkat cells for 30 min at 37° C. in a 5% CO2 incubator. A volume 20 μL of diluted PMA/Ionomycin (81 nM/1.3 uM respectively, ebioscience, catalog number 00-4970-93) in RMPI 1640 complete media were added to each well. After incubation at 37° C. in 5% CO2 incubator for 20 h, supernatants were harvested. IL-2 concentration was assessed by ELISA (IL2 Duoset, R&D Systems, catalog number DY202). Colorimetric intensity at 450 nm was read by Spectramax plate reader and analyzed with Softmax Pro software. Cell viability was assessed by Cell Titer Glo kit (Promega, catalog number G7571) using Victor Luminescence reader (Victor 3V 4202938 by Perkin Elmer).

[2] = test system: IL10 secretion by TMD8 ABC-DLBCL cells; assay: Human IL10 Mesoscale assay (TMD-8); assay type: cell-based; details: Homo sapiens, TMD8; TMD-8 cells, 24 h
How it was run: (§2)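 100,000 cells/well treated with compound in 9 twofold steps from 15 μM to 58.6 nM (0.3% DMSO) for 24 h at 37° C; supernatant cytokine measured by MSD electrochemiluminescence sandwich immunoassay. DMSO wells set maximum signal, BTK inhibitor RN486 (30 nM to 131 pM) set maximum inhibition.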

[3] = test system: IL6 secretion by TMD8 ABC-DLBCL cells; assay: Human IL6 Mesoscale assay (TMD-8); assay type: cell-based; details: Homo sapiens, TMD8; TMD-8 cells, 24 h
How it was run: as §2

full-length MALT1 protein (Strep-MALT1(1-824)-His), sequence (Q9UDY8 whole entry): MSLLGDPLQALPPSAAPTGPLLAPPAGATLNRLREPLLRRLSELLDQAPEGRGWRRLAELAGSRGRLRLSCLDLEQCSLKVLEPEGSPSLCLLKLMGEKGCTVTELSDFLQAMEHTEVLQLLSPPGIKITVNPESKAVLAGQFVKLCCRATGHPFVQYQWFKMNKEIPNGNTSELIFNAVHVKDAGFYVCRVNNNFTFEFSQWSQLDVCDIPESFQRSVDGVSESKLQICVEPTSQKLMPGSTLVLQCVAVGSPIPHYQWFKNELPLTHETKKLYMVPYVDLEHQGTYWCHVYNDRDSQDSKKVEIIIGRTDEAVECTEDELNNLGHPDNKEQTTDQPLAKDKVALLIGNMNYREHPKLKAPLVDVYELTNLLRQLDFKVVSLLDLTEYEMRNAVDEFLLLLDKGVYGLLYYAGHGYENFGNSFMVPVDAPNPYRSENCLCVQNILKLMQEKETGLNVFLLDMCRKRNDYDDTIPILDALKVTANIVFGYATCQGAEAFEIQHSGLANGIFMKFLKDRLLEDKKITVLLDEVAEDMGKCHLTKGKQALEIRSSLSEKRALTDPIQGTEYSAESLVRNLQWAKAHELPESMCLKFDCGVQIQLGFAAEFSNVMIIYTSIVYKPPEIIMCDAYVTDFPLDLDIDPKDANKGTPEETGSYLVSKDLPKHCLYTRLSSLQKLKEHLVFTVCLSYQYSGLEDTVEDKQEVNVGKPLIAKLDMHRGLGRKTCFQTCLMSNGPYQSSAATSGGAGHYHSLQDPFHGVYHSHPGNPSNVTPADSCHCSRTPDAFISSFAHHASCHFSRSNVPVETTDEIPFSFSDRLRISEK

Structure (SMILES): N#Cc1ncc(NC(=O)c2cnn(-c3cncc4ccccc34)c2C(F)(F)F)cc1F [Cpd 41, N-(6-cyano-5-fluoropyridin-3-yl)-1-(isoquinolin-4-yl)-5-(trifluoromethyl)-1H-pyrazole-4-carboxamide]
- IC50 (TMD8 cells): > 20000 nM
- IC50 [1]: 891 nM
- IC50 (OCI-Ly3 cells): 1580 nM
- IC50 (Jurkat cells): 300 nM
- IC50 [2]: 851 nM
- IC50 [3]: ~2090 nM

Structure (SMILES): O=C(Nc1cnc(-n2nccn2)c(Cl)c1)c1cnn(-c2cccc3ncc(F)cc23)c1C(F)(F)F [Cpd 25, N-(5-Chloro-6-(2H-1,2,3-triazol-2-yl)pyridin-3-yl)-1-(3-fluoroquinolin-5-yl)-5-(trifluoromethyl)-1H-pyrazole-4-carboxamide]
- IC50 (TMD8 cells): ~14100 nM
- IC50 [1]: 72 nM
- IC50 (OCI-Ly3 cells): 3310 nM
- IC50 (Jurkat cells): 210 nM
- IC50 [3]: 174 nM

Structure (SMILES): O=C(Nc1cnc(-n2nccn2)c(Cl)c1)c1cnn(-c2cncc3ccccc23)c1C(F)(F)F [Cpd 32, N-(5-chloro-6-(2H-1,2,3-triazol-2-yl)pyridin-3-yl)-1-(isoquinolin-4-yl)-5-(trifluoromethyl)-1H-pyrazole-4-carboxamide]
- IC50 (TMD8 cells): 4900 nM
- IC50 [1]: 19 nM
- IC50 (OCI-Ly3 cells): 110 nM
- IC50 (Jurkat cells): 2 nM
- IC50 [2]: 14 nM
- IC50 [3]: 17 nM

Structure (SMILES): O=C(Nc1cnc(-n2nccn2)c(Cl)c1)c1cnn(-c2cccc3ccccc23)c1C(F)(F)F [Cpd 2, N-(5-Chloro-6-(2H-1,2,3-triazol-2-yl)pyridin-3-yl)-1-(naphthalen-1-yl)-5-(trifluoromethyl)-1H-pyrazole-4-carboxamide]
- IC50 (TMD8 cells): 13800 nM
- IC50 [1]: 12 nM
- IC50 (OCI-Ly3 cells): 420 nM
- IC50 (Jurkat cells): 59 nM
- IC50 [2]: 28 nM
- IC50 [3]: 52 nM

Structure (SMILES): O=C(Nc1cnc(-n2nccn2)c(Cl)c1)c1cnn(-c2cccc3ncccc23)c1C(F)(F)F [Cpd 8, N-(5-Chloro-6-(2H-1,2,3-triazol-2-yl)pyridin-3-yl)-1-(quinolin-5-yl)-5-(trifluoromethyl)-1H-pyrazole-4-carboxamide]
- IC50 (TMD8 cells): ~7590 nM
- IC50 [1]: 13 nM
- IC50 (OCI-Ly3 cells): 110 nM
- IC50 (Jurkat cells): 5.2 nM
- IC50 [3]: 32 nM

Structure (SMILES): O=C(Nc1ccnc(C(F)(F)F)c1)c1cnn(-c2cccc3ncccc23)c1C(F)(F)F [Cpd 6, 1-(Quinolin-5-yl)-5-(trifluoromethyl)-N-(2-(trifluoromethyl)pyridin-4-yl)-1H-pyrazole-4-carboxamide]
- IC50 (TMD8 cells): 9330 nM
- IC50 [1]: 91 nM
- IC50 (OCI-Ly3 cells): 620 nM
- IC50 (Jurkat cells): 23 nM
- IC50 [3]: 112 nM

Structure (SMILES): N#Cc1cc(NC(=O)c2cnn(-c3cccc4ccncc34)c2C(F)(F)F)cnc1-n1nccn1 [Cpd 19, N-(5-cyano-6-(2H-1,2,3-triazol-2-yl)pyridin-3-yl)-1-(isoquinolin-8-yl)-5-(trifluoromethyl)-1H-pyrazole-4-carboxamide]
- IC50 (TMD8 cells): > 20000 nM
- IC50 [1]: 229 nM
- IC50 (OCI-Ly3 cells): 1100 nM
- IC50 (Jurkat cells): 410 nM
- IC50 [3]: 1950 nM

Structure (SMILES): CC(C)c1c(C(=O)Nc2cnc(-n3nccn3)c(Cl)c2)cnn1-c1cccc2ncccc12 [Cpd 26, N-(5-chloro-6-(2H-1,2,3-triazol-2-yl)pyridin-3-yl)-5-isopropyl-1-(quinolin-5-yl)-1H-pyrazole-4-carboxamide]
- IC50 (TMD8 cells): 8710 nM
- IC50 [1]: 631 nM
- IC50 (OCI-Ly3 cells): 4790 nM
- IC50 (Jurkat cells): 790 nM
- IC50 [3]: 575 nM

Structure (SMILES): Cc1ccc(-n2ncc(C(=O)Nc3cnc(-n4nccn4)c(Cl)c3)c2C(F)(F)F)c2cccnc12 [Cpd 28, N-(5-Chloro-6-(2H-1,2,3-triazol-2-yl)pyridin-3-yl)-1-(8-methylquinolin-5-yl)-5-(trifluoromethyl)-1H-pyrazole-4-carboxamide]
- IC50 (TMD8 cells): 6610 nM
- IC50 [1]: 68 nM
- IC50 (OCI-Ly3 cells): 1510 nM
- IC50 (Jurkat cells): 200 nM
- IC50 [3]: 141 nM

Structure (SMILES): Cc1cc2ccccc2c(-n2ncc(C(=O)Nc3cnc(-n4nccn4)c(Cl)c3)c2C(F)(F)F)n1 [Cpd 9, N-(5-Chloro-6-(2H-1,2,3-triazol-2-yl)pyridin-3-yl)-1-(3-methylisoquinolin-1-yl)-5-(trifluoromethyl)-1H-pyrazole-4-carboxamide]
- IC50 (TMD8 cells): 10700 nM
- IC50 [1]: 65 nM
- IC50 (OCI-Ly3 cells): ~2400 nM
- IC50 (Jurkat cells): 39 nM
- IC50 [3]: 195 nM

Structure (SMILES): CCc1c(C(=O)Nc2cnc(-n3nccn3)c(Cl)c2)cnn1-c1cccc2ncccc12 [Cpd 17, N-(5-Chloro-6-(2H-1,2,3-triazol-2-yl)pyridin-3-yl)-5-ethyl-1-(quinolin-5-yl)-1H-pyrazole-4-carboxamide]
- IC50 (TMD8 cells): 9330 nM
- IC50 [1]: 141 nM
- IC50 (OCI-Ly3 cells): ~4370 nM
- IC50 (Jurkat cells): 170 nM
- IC50 [3]: 794 nM

Structure (SMILES): O=C(Nc1cnc(-c2ncco2)c(Cl)c1)c1cnn(-c2cccc3ccncc23)c1C(F)(F)F [Cpd 22, N-(5-chloro-6-(oxazol-2-yl)pyridin-3-yl)-1-(isoquinolin-8-yl)-5-(trifluoromethyl)-1H-pyrazole-4-carboxamide]
- IC50 (TMD8 cells): 17000 nM
- IC50 [1]: 661 nM
- IC50 (OCI-Ly3 cells): ~310 nM
- IC50 (Jurkat cells): 1860 nM
- IC50 [3]: > 15000 nM

The remaining compounds from weak to strong by IC50 [1], led by results:

- IC50 [1]: 977 nM
- IC50 (OCI-Ly3 cells): ~9550 nM
- IC50 (Jurkat cells): 680 nM
- IC50 [3]: ~13500 nM
Structure (SMILES): O=C(Nc1ccc(-n2nccn2)c(Cl)c1)c1cnn(-c2cccc3ccncc23)c1C(F)(F)F [Cpd 11, N-(3-chloro-4-(2H-1,2,3-triazol-2-yl)phenyl)-1-(isoquinolin-8-yl)-5-(trifluoromethyl)-1H-pyrazole-4-carboxamide]
- IC50 (TMD8 cells): 12600 nM

- IC50 [1]: 398 nM
- IC50 (OCI-Ly3 cells): 340 nM
- IC50 (Jurkat cells): 73 nM
- IC50 [2]: 204 nM
- IC50 [3]: 355 nM
Structure (SMILES): CN1CCC(Oc2ncc(NC(=O)c3cnn(-c4cncc5ccccc45)c3C(F)(F)F)cc2Cl)CC1 [Cpd 45, N-(5-chloro-6-((1-methylpiperidin-4-yl)oxy)pyridin-3-yl)-1-(isoquinolin-4-yl)-5-(trifluoromethyl)-1H-pyrazole-4-carboxamide]
- IC50 (TMD8 cells): ~9330 nM

- IC50 [1]: 389 nM
- IC50 (Jurkat cells): 310 nM
Structure (SMILES): N#Cc1cc(NC(=O)c2cnn(-c3cccc4ccccc34)c2C(F)(F)F)ccn1 [Cpd 1, N-(2-Cyanopyridin-4-yl)-1-(naphthalen-1-yl)-5-(trifluoromethyl)-1H-pyrazole-4-carboxamide]

- IC50 [1]: 214 nM
- IC50 (OCI-Ly3 cells): ~780 nM
- IC50 (Jurkat cells): 140 nM
- IC50 [3]: 282 nM
Structure (SMILES): N#Cc1cncc(NC(=O)c2cnn(-c3cccc4ccccc34)c2C(F)(F)F)c1 [Cpd 5, N-(5-Cyanopyridin-3-yl)-1-(naphthalen-1-yl)-5-(trifluoromethyl)-1H-pyrazole-4-carboxamide]
- IC50 (TMD8 cells): > 20000 nM

- IC50 [1]: 89 nM
- IC50 (OCI-Ly3 cells): 3390 nM
- IC50 (Jurkat cells): 810 nM
- IC50 [3]: 107 nM
Structure (SMILES): COc1ncc(NC(=O)c2cnn(-c3cncc4ccccc34)c2C(F)(F)F)cc1Cl [Cpd 23, N-(5-chloro-6-methoxypyridin-3-yl)-1-(isoquinolin-4-yl)-5-(trifluoromethyl)-1H-pyrazole-4-carboxamide]
- IC50 (TMD8 cells): 8320 nM

- IC50 [1]: 41 nM
- IC50 (OCI-Ly3 cells): 430 nM
- IC50 (Jurkat cells): 130 nM
- IC50 [3]: 166 nM
Structure (SMILES): COc1ncc(NC(=O)c2cnn(-c3cccc4ncccc34)c2C(F)(F)F)cc1Cl [Cpd 7, N-(5-Chloro-6-methoxypyridin-3-yl)-1-(quinolin-5-yl)-5-(trifluoromethyl)-1H-pyrazole-4-carboxamide]
- IC50 (TMD8 cells): ~14100 nM
